Laboratory results taken from patent US20070142462A1, “Method of Treating Cancer” (The University of Utah, priority 2000, published 2007).

Assays:
[1] = tested on: phosphorylated IκBα (IκBα-P); assay: Immunoassay for phosphorylated IκBα; assay type: cell-based, human; conditions: M1619; catalase 3,000 U/ml for 24 hours
Protocol: The effect of antioxidants on expression of cell cyclins, cyclin-associated kinases, cell cycle inhibitors and IκBα was studied by incubating near confluent cell cultures with antioxidant treatments for 15 min-48 hours. Cells were lysed and protein levels were measured by immunoblot assay as described below. In other experiments, the ratio of phosphorylated-IκBα to total IκBα was determined by harvest of cytosolic protein 24 hours after treating cultures with 3,000 U/ml catalase.
The NF-κB inhibitor IκBα and phosphorylated IκBα were assayed with several modifications of the above procedure. Cells were lysed in boiling buffer to which 50 mM DTT had been added as a reducing agent. Immunoassay of IκBα. proceeded as above, but samples for measurement of phosphorylated IκBα were blocked 2 hours at room temperature and incubated overnight at 4° C. with primary phospho-specific antibodies diluted 1:1000 in PBS with 0.1% Tween and 5% BSA.
M1619 cells either treated with catalase with 3,000 U/ml for 24 hours or untreated were used in immunoassays for phosphorylated IκBα (IκBα-P) using phospho-specific antibody as described above.
Mean ratios of the densitometrically determined sum intensities of IκBα-P staining in the immunoassay experiments are shown in FIG. 5B.

[2] = tested on: M1619 cells; assay: Cytotoxicity by trypan blue; assay type: cell-based; conditions: catalase treatment; 24 hours
Protocol: (§1) Measurement of Cytotoxicity and Apoptosis. To assess for cytotoxicity, near confluent cells cultured in 24 well plates were exposed to antioxidants or withdrawn from serum for 24 hours. Medium was removed, and replaced with Dulbecco=s phosphate buffered saline (DPBS) containing 0.1% trypan blue. […] To assess for apoptosis, cells grown on glass slides were treated with antioxidants for 24 hours. Apoptosis was studied by terminal deoxynucleotidyl transferase (TdT) dependent 3′BOH fluorescein end-labeling of DNA fragments, using a Fluorescein-FragEL™ DNA fragmentation detection kit (Oncogene Research Products, Cambridge, Mass.). DNase-treated fixed cells were used as a positive control.

[3] = tested on: breast carcinoma MDA-MB-453 cells; assay: MTT proliferation assay, MDA-MB-453 breast carcinoma; assay type: cell-based, human; conditions: Catalase 3000 U/ml; 10% FBS; 72 hours; mean±SE vs control
Protocol: (§2) Measurement of Proliferation in Cell Cultures. […] This assay empirically distinguishes between dead and living cells.
(§3) Cell Culture Treatments. The effect of antioxidant treatments on proliferation of malignant cell lines was studied in cultures stimulated with 10% FBS. Cell numbers were quantitated by the MTT assay 24-72 hours later. In some experiments, antioxidants were added immediately after cells were plated. In other experiments, cells were plated and allowed to grow for 24 hours before fresh media with antioxidants was added, and cell numbers were studied by the MTT assay 48 hours later.
(§4) Cells stimulated with 10% FBS were plated at a density of 50,000 cells per well. DMSO and antioxidants were added to cell wells at the indicated concentrations. […] Each value represents a mean of at least 4 experiments.

[4] = tested on: M1619 melanoma cells; assay: MTT proliferation assay, M1619 melanoma; assay type: cell-based, human
Protocol: Measurement of Proliferation in Cell Cultures. Proliferation of cultured cells was quantitated using a previously reported calorimetric method based upon metabolic reduction of the soluble yellow tetrazolium dye 3-[4,5-dimethylthiazol]-2yl-2,5-diphenyl tetrazolium bromide (MTT) to its insoluble purple formazan by the action of mitochondrial succinyl dehydrogenase. […] This assay empirically distinguishes between dead and living cells. For proliferation studies, cells were seeded into 24-well uncoated plastic plates (Costar) at 15,000-50,000 cells per well and cultured with respective media and mitogens. After 24-96 hours, medium was removed, cells were washed twice with 1 ml of sterile Dulbecco's modified phosphate buffered saline without Ca^2+ or Mg^2+ (DPBS), the medium was replaced with 1 ml/well fresh medium containing 100 μg/ml MTT, and plates were incubated an additional hour. MTT-containing medium was removed, 0.5 ml dimethylsulfoxide (DMSO) was added to each well, and the absorbance of the solubilized purple formazan dye was measured at 540 nm. A total of 4-6 wells was studied at each treatment condition. Preliminary studies were performed with 50-200 μg/ml MTT incubated for 15 min to 3 hours to determine the optimum concentration and incubation time at which the rate of conversion was linear and proportional to the number of cells present.
as §3
A. M1619 melanoma cells stimulated with 10% fetal bovine serum (FBS) were plated at a density of 50,000 cells per well and antioxidants were added to wells at the indicated concentrations (mM or U/ml). After 48 hours, proliferation was quantitated by assessing the cell number-dependent reduction of the soluble yellow tetrazolium dye 3-[4,5-dimethylthiazol]-2yl-2,5-diphenyl tetrazolium bromide (MTT) to its insoluble formazan, measured as the absorbance at 540 nm (A540). The antioxidants tested included no antioxidant (control, i.e., FBS alone), 1000 U/ml SOD, 20 mM NAC, 500 U/ml, 1000 U/ml, and 3000 U/ml of catalase, and boiled […] catalase.
B. In a separate experiment, 2 μl/well of DMSO (served as control), 5 μM, 10 μM, and 25 μM Ebselen were tested on M1619 melanoma cells as described above, except that the cells were cultured for 72 hours before proliferation was measured.
C. 3000 U/ml Catalase, 2 μl/well DMSO, 25 μM Ebselen, and 50 μM Ebselen were tested as described above except that the compounds were added 24 hours after M1619 cells were plated. After the addition of antioxidants, the cells were incubated for an additional 48 hours and cell proliferation was quantitated. […]

[5] = tested on: LNCaP.FGC prostate adenocarcinoma cells; assay: MTT proliferation assay, LNCaP.FGC prostate adenocarcinoma; assay type: cell-based, human; conditions: Catalase 3000 U/ml; 10% FBS; 48 hours; mean±SE vs control
Protocol: as §2, §3, §4

[6] = tested on: M1619 cells; assay: Apoptosis by TdT fluorescein end-labeling (FragEL); assay type: cell-based, human; conditions: 3000 U/ml catalase for 24 hours; vs DNase-treated positive control
Protocol: as §1
Apoptosis was studied by terminal deoxynucleotidyl transferase (TdT) dependent 3′BOH fluorescein end-labeling of DNA fragments, using a Fluorescein-FragE™ DNA fragmentation detection kit (Oncogene Research Products).

[7] = tested on: Melanoma M1585 cells; assay: MTT proliferation assay, M1585 melanoma; assay type: cell-based, human; conditions: Catalase 3000 U/ml; 10% FBS; 48 hours; mean±SE vs control
Protocol: as §2, §3, §4

Catalase was tested, and the “amount of IκBα that is phosphorylated” value [1] was “decreases”, the “trypan blue dye exclusion” value [2] was “significantly increased” and the “Percent Growth Inhibition” value [3] was 49 ± 2. The “Proliferation of M1619 melanoma cells (MTT, A540)” value ([4]; 10% FBS, agents added at plating, 48 hours (ebselen 72 hours)) was “reduced proliferation”, the “Proliferation of M1619 melanoma cells, agents added 24 hours after plating” value ([4]; catalase 3000 U/ml, Ebselen 25 and 50 μM, further 48 hours) was “antiproliferative” and the “Percent Growth Inhibition” value [5] was 43 ± 7. The Induction of apoptosis [6] was “did not induce apoptosis” and the “Percent Growth Inhibition” value [7] was 80 ± 1.
